Source: ChEMBL document CHEMBL2094269, “WEHI/Eskitis Trypanosoma b. brucei screening data”

Test system: Trypanosoma brucei brucei
Experiment: microbe, parasite or virus in culture
Type: functional, organism-based, STIB 795
Conditions: Trypanosoma brucei, STIB 795
Description: DNDI: Inhibition of Human African Trypanosomiasis (HAT), STIB 795, in vitro

Compound: CCN1CCN(c2cc(C)c3cc(NC(=O)c4ccccc4F)ccc3n2)CC1
- IC50: > 10.4 µM

Compound: CCOc1cc2c(cc1OCC)C(c1ccccc1)N(c1ccccc1)C(=O)C2 (stereo unspecified)
- IC50: > 10.4 µM

Compound: CCOC(=O)C1CCCN(C2=NC(=O)/C(=C/c3ccc(O)c(OC)c3)S2)C1 (stereo unspecified)
- IC50: > 10.4 µM

Compound: COc1cccc(C(=O)Nc2ccc3nc(N4CCOCC4)cc(C)c3c2)c1
- IC50: > 10.4 µM

Compound: CN(C)S(=O)(=O)c1ccc(C(=O)Nc2nnc(-c3cccs3)o2)cc1
- IC50: > 10.4 µM

Compound: CCCCCn1c(C(Cc2ccccc2)NC(=O)COC)nc2ccccc21 (stereo unspecified)
- IC50: > 10.4 µM

Compound: COc1ccccc1CCNCc1ccc(OC)c(OCc2ccccc2)c1
- IC50: > 10.4 µM

Compound: CCN1CCN(c2cc(C)c3cc(NC(=O)c4cccs4)ccc3n2)CC1
- IC50: > 10.4 µM

Compound: COC(=O)c1cc(NC(=O)Nc2ccc3snnc3c2)cc(C(=O)OC)c1
- IC50: > 10.4 µM

Compound: Fc1ccc(C(OCCN2CCCC2)c2ccc(Br)cc2)cc1 (stereo unspecified)
- IC50: > 10.4 µM

Compound: CN1CCN(C2Cc3ccccc3Sc3cc(C(F)(F)F)ccc32)CC1 (stereo unspecified)
- IC50: > 10.4 µM

Compound: CCn1cc(C(=O)N(C)c2ccccc2F)c2cc(OC)c(OC)cc2c1=O
- IC50: > 10.4 µM

Compound: O=C(O)CSc1cc(NS(=O)(=O)c2ccccc2)c2ccccc2c1O
- IC50: > 10.4 µM

Compound: CC[n+]1c(/C=C2\Sc3ccccc3N2CCC(=O)O)sc2ccccc21
- IC50: > 10.4 µM

Compound: CSc1ccc(/C=C2\CN(C)C/C(=C\c3ccc(SC)cc3)C2=O)cc1
- IC50: > 10.4 µM

Compound: OC(COCc1ccc(Cl)cc1)CN1CCC(Cc2ccccc2)CC1 (stereo unspecified)
- IC50: > 10.4 µM

Compound: COc1ccc(C(CC(=O)c2ccco2)SCc2ccco2)cc1OC (stereo unspecified)
- IC50: > 10.4 µM

Compound: Cc1ccc(C(CNC(=O)COc2ccc(Cl)cc2)N2CCCC2)cc1 (stereo unspecified)
- IC50: > 10.4 µM

Compound: O=C(Nc1nc(-c2ccncc2)cs1)c1ccc(Oc2ccccc2)cc1
- IC50: > 10.4 µM

Compound: CSc1ccc(C(Nc2ccccn2)c2ccc3cccnc3c2O)cc1 (stereo unspecified)
- IC50: > 10.4 µM

Compound: CC1CC(OCC(O)CN2CCC(Cc3ccccc3)CC2)CC(C)(C)C1 (stereo unspecified)
- IC50: > 10.4 µM

Compound: O=C(/C=C/c1ccccc1)Nc1c(-c2ccccc2)nc2ccc(Cl)cn12
- IC50: > 10.4 µM

Compound: OC(c1ccc(Cl)s1)(c1ccc(Cl)s1)C1CN2CCC1CC2 (stereo unspecified)
- IC50: > 10.4 µM

Compound: Cc1ccc(-c2csc3ncnc(N/N=C/c4cc(C)ccc4O)c23)cc1
- IC50: > 10.4 µM

Compound: C/C(=C\c1nsc(Nc2ccc(F)c(Cl)c2)n1)Nc1ccc(C)cc1
- IC50: > 10.4 µM

Compound: O=c1oc2c(cc(NS(=O)(=O)c3ccc(F)cc3)c3ccccc32)s1
- IC50: > 10.4 µM

Compound: OC(C#CCN1CCOCC1)(c1ccc(Cl)cc1)c1cccc(Cl)c1 (stereo unspecified)
- IC50: > 10.4 µM

Compound: OCCNCc1c(OCc2ccc(Cl)cc2Cl)ccc2ccccc12
- IC50: > 10.4 µM

Compound: COC(=O)c1cc(-c2ccccc2)nc2c1C(=O)C(=O)C=C2N1CCCCC1
- IC50: > 10.4 µM

Compound: CC(C)CNC(=O)Nc1cccc(-c2noc(C3(c4ccccc4)CC3)n2)c1
- IC50: > 10.4 µM

Compound: CN(C)c1ccc(C(Nc2nccs2)c2ccc3cccnc3c2O)cc1 (stereo unspecified)
- IC50: > 10.4 µM

Compound: CCN1c2ccccc2NC2=C(C(=O)CC(C)(C)C2)C1c1ccc(OC)cc1 (stereo unspecified)
- IC50: > 10.4 µM

Compound: OC(CNCCc1ccccc1)CN1c2ccccc2Sc2ccccc21 (stereo unspecified)
- IC50: > 10.4 µM

Compound: O=C(N/N=C\c1ccc(-c2cccc(Cl)c2Cl)o1)c1ccc(F)cc1
- IC50: > 10.4 µM

Compound: N#Cc1cc(C#N)c(SCC(=O)Nc2cccc(C(F)(F)F)c2)nc1N
- IC50: > 10.4 µM

Compound: C=CCN1C(=O)c2[nH]nc(-c3c(C)cc(C)cc3O)c2C1c1ccc(F)cc1 (stereo unspecified)
- IC50: > 10.4 µM

Compound: Cc1ccc(Nc2cc(C)nc(N3CCN(C(=O)c4ccco4)CC3)n2)cc1
- IC50: > 10.4 µM

Compound: COc1cccc(/C=C2/CN(C(C)C)C/C(=C\c3cccc(OC)c3)C2=O)c1
- IC50: > 10.4 µM

Compound: CCOc1cccc(/C=N/NC(=O)c2cc(-c3ccc(CC)cc3)n[nH]2)c1O
- IC50: > 10.4 µM

Compound: OCCN1CCN(Cc2ccccc2Sc2ccc3ccccc3c2)CC1
- IC50: > 10.4 µM

Compound: CC1CCN(Cc2cc(CSc3ccccc3)c3cccnc3c2O)CC1
- IC50: > 10.4 µM

Compound: O=C(Nc1ccccc1C(=O)N/N=C/c1ccccn1)c1ccc(Cl)cc1
- IC50: > 10.4 µM

Compound: Cc1c(-c2cc(Cl)cc(-c3ccc(F)cc3)c2)ccc2nc(N)nc(N)c12
- IC50: > 10.4 µM

Compound: COc1ccc(C(=O)O/N=C(\N)c2ccc(Br)cc2)c(OC)c1
- IC50: > 10.4 µM

Compound: Clc1ccc(Nc2nc3nonc3nc2NC2CCCCC2)cc1Cl
- IC50: > 10.4 µM

Compound: Cc1cc(C)c(C(=O)CC(SCC(=O)OC(C)C)C(F)(F)F)c(=O)[nH]1 (stereo unspecified)
- IC50: > 10.4 µM

Compound: CCC(=O)Nc1nc2ccc(NS(=O)(=O)c3ccccc3F)cc2s1
- IC50: > 10.4 µM

Compound: CCCCOC(=O)c1ccc(NC(=O)c2ccc(C3CCCCC3)cc2)cc1
- IC50: > 10.4 µM

Compound: Cc1ccccc1-c1cc(N2CCN(C(=O)NC3CCCCC3)CC2)ncn1
- IC50: > 10.4 µM

Compound: CN(C)c1ccc(/C=N/Nc2cc(N3CCCC3)nc(N3CCCC3)n2)cc1
- IC50: > 10.4 µM

Compound: O=C(O)c1ccc(NC(CC(=O)c2ccc(Cl)cc2)c2ccccc2)cc1 (stereo unspecified)
- IC50: > 10.4 µM

Compound: O=C(CC(SCc1ccco1)c1ccc(C(F)(F)F)cc1)c1ccco1 (stereo unspecified)
- IC50: > 10.4 µM

Compound: COC(=O)c1ccc2c(c1)C(C)(C)C(/C=C/c1cccc(OC)c1OC)=[N+]2C
- IC50: > 10.4 µM

Compound: COc1ccc(S(=O)(=O)C(CC(=O)c2ccccc2)c2ccccc2)cc1 (stereo unspecified)
- IC50: > 10.4 µM

Compound: O=C1N=C(Nc2cccc(Cl)c2Cl)S/C1=C\c1ccc(O)c(O)c1
- IC50: > 10.4 µM

Compound: C/C(=N/NC(=O)c1cc(-c2ccccc2)nc2ccccc12)c1ccccc1O
- IC50: > 10.4 µM

Compound: CCOC(=O)c1c(-c2cccs2)csc1NC(=O)C#Cc1ccccc1
- IC50: > 10.4 µM

Compound: Cc1cccc(C(=O)N2CCN(c3cc(N4CCOCC4)nc(C)n3)CC2)c1
- IC50: > 10.4 µM

Compound: CN(C)c1ccc(C(=O)NN=C2C=C(C(C)(C)C)C(=O)C(C(C)(C)C)=C2)cc1
- IC50: > 10.4 µM

Compound: COc1ccccc1NC(=S)N/N=C/c1cccn1Cc1ccccc1F
- IC50: > 10.4 µM

Compound: CSC1C(c2ccc(F)cc2)=NN(C(=O)Nc2ccc(C#N)cc2)C1(C)C (stereo unspecified)
- IC50: > 10.4 µM

Compound: COc1ccc(CN2CCc3nc(N4CCC(C)CC4)ncc3C2)c(OC)c1
- IC50: > 10.4 µM

Compound: CN(C)c1ccc(N=c2cc(-c3ccccc3)sc(-c3ccccc3)c2)cc1
- IC50: > 10.4 µM

Compound: C/C(=N/OC(=O)c1ccc(Cn2nc(C)c(Cl)c2C)cc1)c1ccccn1
- IC50: > 10.4 µM

Compound: O=C(CCCOc1ccc(Cl)cc1Cl)N/N=C/c1ccc(O)cc1O
- IC50: > 10.4 µM

Compound: COc1ccc(CC(=O)Nc2sc3c(c2C#N)CC(C)(C)NC3(C)C)cc1
- IC50: > 10.4 µM

Compound: CCOC(=O)c1cnc2c(CC)cccc2c1NC1CC(C)(C)NC(C)(C)C1
- IC50: > 10.4 µM

Compound: COc1cc(NC(=O)Nc2ccc(-c3noc(C)n3)cc2)cc(OC)c1OC
- IC50: > 10.4 µM

Compound: CCN(CC)S(=O)(=O)c1cccc(N/N=C2\C=CC(=O)c3cccnc32)c1
- IC50: > 10.4 µM

Compound: CCOC(=O)c1ccc(NC(=O)NC23CC4(C)CC(C)(CC(C)(C4)C2)C3)cc1
- IC50: > 10.4 µM

Compound: Cn1ccnc1-c1c(-c2ccc(Cl)cc2)nc(-c2ccc(Cl)cc2)n1O
- IC50: > 10.4 µM

Compound: CCC(=C\C1=[N+](C)c2ccccc2C1(C)C)/C=C1/N(C)c2ccccc2C1(C)C
- IC50: > 10.4 µM

Compound: CN(C)CCNC(=O)c1ccc2c(c1)NC(=O)/C(=C/c1ccccc1Cl)O2
- IC50: > 10.4 µM

Compound: CCCN1CCN(c2ncc3c(n2)CCN(Cc2ccccc2Cl)C3)CC1
- IC50: > 10.4 µM

Compound: CC(=O)N(C)c1ccc(/N=C2/C(=O)Nc3cc(Br)c(C)cc32)cc1
- IC50: > 10.4 µM

Compound: CC(C)N1C/C(=C\c2cccc(Cl)c2)C(=O)/C(=C/c2cccc(Cl)c2)C1
- IC50: > 10.4 µM

Compound: O=C(CC1(O)C(=O)Nc2ccc(Br)cc21)c1ccc(Cl)s1 (stereo unspecified)
- IC50: > 10.4 µM

Compound: Cc1ccc(C(CNC(=O)c2ccc(Br)cc2)N2CCCC2)cc1 (stereo unspecified)
- IC50: > 10.4 µM

Compound: CCOC(=O)c1ccc(Nc2ncnc3c2cnn3-c2ccc(C)cc2C)cc1
- IC50: > 10.4 µM

Compound: CCOC(=O)c1nc(Nc2cc(Cl)c(OC)cc2OC)c2ccccc2n1
- IC50: > 10.4 µM

Compound: COc1ccc(Nc2nc(N3CCN(C)CC3)nc3c2cnn3C)cc1Cl
- IC50: > 10.4 µM

Compound: O=C(CCn1nnc2ccccc21)N/N=C/c1cc(Br)ccc1O
- IC50: > 10.4 µM

Compound: CC1CCN(C(=S)NC(=O)c2ccccc2I)CC1
- IC50: > 10.4 µM

Compound: CCn1c2ccccc2c2cc(CNCCc3ccc(OC)c(OC)c3)ccc21
- IC50: > 10.4 µM

Compound: CSc1ccc(C2N=C(c3ccc(C)cc3)CC(c3ccccc3O)N2)cc1 (stereo unspecified)
- IC50: > 10.4 µM

Compound: Cc1ccc(S(=O)(=O)C(CC(=O)c2ccco2)c2ccc(Cl)cc2)cc1 (stereo unspecified)
- IC50: > 10.4 µM

Compound: CCN(CC)c1cc(C)c2cc(NC(=O)/C=C/c3ccc(OC)cc3)ccc2n1
- IC50: > 10.4 µM

Compound: CCCCOc1cccc(-c2cc(C(=O)N/N=C(\C)CC)c3ccccc3n2)c1
- IC50: > 10.4 µM

Compound: CCCC(=O)c1ccc(N2CCN(C(=O)c3c(F)cccc3F)CC2)c(F)c1
- IC50: > 10.4 µM

Compound: Cc1ccc(N2CC(C(=O)NCc3nnnn3-c3ccccc3)CC2=O)cc1C (stereo unspecified)
- IC50: > 10.4 µM

Compound: C=CCN1C(=O)c2ccccc2Sc2ccc(C(=O)NCc3ccco3)cc21
- IC50: > 10.4 µM

Compound: Cc1cc(C)n(-c2nc(N/N=C/c3cccs3)nc(Nc3ccccc3)n2)n1
- IC50: > 10.4 µM

Compound: Cc1c(NC(=O)CN2CCN(C(=O)c3ccccc3)CC2)n(C)c2ccccc12
- IC50: > 10.4 µM

Compound: CC(C)NC(=O)Nc1ccc(-c2noc(-c3ccc(Br)o3)n2)cc1
- IC50: > 10.4 µM

Compound: CN(CC(=O)Nc1nncs1)S(=O)(=O)c1ccc(Br)cc1
- IC50: > 10.4 µM

Compound: CCOC(=O)N1CCN(c2ccc(/C=C(\C#N)c3nc4ccccc4[nH]3)o2)CC1
- IC50: > 10.4 µM

Compound: CCOC(=O)c1c(NC(C)=O)sc2c1CCC(Sc1ccccc1)C2O (stereo unspecified)
- IC50: > 10.4 µM

Compound: Cc1ccsc1/C=C/C(=O)Nc1ccc2nc(N3CCCCC3)cc(C)c2c1
- IC50: > 10.4 µM

Compound: CCN1CCC(N(Cc2cccs2)C(=O)Nc2ccc(C)c(Cl)c2)CC1
- IC50: > 10.4 µM

Compound: CCOC(=O)c1cc2c(=O)n3ccccc3nc2n(CCCn2ccnc2)c1=N
- IC50: > 10.4 µM

Compound: O=C(NN=C(/C=C/c1ccccc1)c1ccccc1)c1cc2ccccc2cc1O
- IC50: > 10.4 µM

Compound: COc1ccccc1-n1c(C)cc(/C=C2\C(=N)N3C(C)=CSC3=NC2=O)c1C
- IC50: > 10.4 µM

Compound: O=C(Nc1cccc(Cl)c1)C1CCN(c2ncc(-c3ccccc3)cn2)CC1
- IC50: > 10.4 µM

Compound: OCCN1CCN(C2Cc3ccccc3Sc3cc(Cl)c(F)cc32)CC1 (stereo unspecified)
- IC50: > 10.4 µM

Compound: C/C(=C\c1nsc(Nc2ccc(F)c(Cl)c2)n1)NCCC1=CCCCC1
- IC50: > 10.4 µM

Compound: C/C(=N/Nc1ccc(F)cc1F)c1cc2cc(Br)ccc2oc1=O
- IC50: > 10.4 µM

Compound: COc1ccc(C(=O)c2ccc(N3CCNCC3)c(F)c2)cc1Br
- IC50: > 10.4 µM

Compound: CCOC(=O)c1sc(-n2[nH]c(C)c(Cc3ccc(Cl)cc3)c2=O)nc1C
- IC50: > 10.4 µM

Compound: O=C(Nc1nc(NC(=O)c2ccco2)n(-c2ccccc2)n1)c1ccccc1
- IC50: > 10.4 µM

Compound: CCC(CO)NCC(O)Cn1c2ccc(Cl)cc2c2cc(Cl)ccc21 (stereo unspecified)
- IC50: > 10.4 µM

Compound: CC(/C=N/NC(=O)c1cc(-c2ccc(OC(C)C)cc2)n[nH]1)=C\c1ccccc1
- IC50: > 10.4 µM
